In patent publication US20200216432A1, “SULFONAMIDE DERIVATIVES AS STAT3 INHIBITORS FOR THE TREATMENT OF PROLIFERATIVE DISEASES” (King's College London, priority 2017, published 2020):

Tests used:
[1] = test system: A4 (STAT3-null) cancer cell line; assay: MTT cell viability assay, A4; format: cell-based
Description: (§1) MTT Cell viability assay with both MDA-MB-231 breast (STAT3-dependent) and A4 (STAT3-null) cancer cell lines.
(§2) After observing significant STAT3 dimerisation inhibitory activity in the preliminary FP assay, the target ligand and related fragments were progressed to an MTT cytotoxicity assay to evaluate in a STAT3-dependent tumour cell line (MDA MB 231, breast cancer) and a STAT3 null A4 cell line. It was anticipated that the compounds would show selective toxicity towards the STAT3-dependent MDA MB 231 cell line and would have lost activity in the STAT3 null A4 cell line if the mechanism of action was STAT3-mediated.
(§3) For each cell line, a total of 10,000 cells were seeded for 24 hours before addition of the inhibitors. The cells were grown in normal cell culture conditions at 37° C. under a 5% CO2 humidified atmosphere using an appropriate medium. The cell count was adjusted to 10^5 cells/ml, and 5,000-20,000 cells were added per well depending on the cell line. The cells were then incubated for 24 hours, and 1 μl aliquots of the inhibitors were added to the wells in triplicate. […] Absorbance was quantified by spectrophotometry at A=570 nm (Envision™ Plate Reader, PerkinElmer™, USA). IC50 values were calculated by a dose-response analysis using the Prism GraphPad Prism® software package.

[2] = target: unphosphorylated STAT3 monomer (uSTAT3) SH2 domain (Homo sapiens, UniProt P40763); assay: Fluorescence polarisation assay for the inhibition of STAT3 dimerisation; format: binding; conditions: 350 nM uSTAT3, 10 nM FAM-pYLPQTV, 100 μM ligand; average of triplicate
Description: Fluorescence Polarisation Assay for the Inhibition of STAT3 Dimerisation
The compounds were subjected to an in vitro fluorescent polarisation (FP)-based primary PPI binding screen to assess their ability to inhibit STAT3 dimerisation by interacting with the SH2 domain. In this FP assay, the unphosphorylated STAT3 monomer (uSTAT3) and a surrogate peptide FAM-pYLPQTV were used to form a ‘pseudo-dimer’. The assay is based on the concept that the compounds were expected to displace the surrogate peptide from the uSTAT3 resulting in a fluorescent read out.
Specifically, for the FP assay, a black (CORNING™) 96 well plate was thoroughly washed with distilled water and allowed to dry. A 100 nM FAM-pYLPQTV working solution was prepared from 10 μM FAM-pYLPQTV stock solution (in DMSO) using PBS pH 7.4 Buffer. 10 μl FAM-pYLPQTV was added to 350 nM uSTAT3 protein, the final concentration of protein in each well, in 90 μl PBS buffer pH 7.4. The MP value of the surrogate dimer complex was measured using a fluorescent plate reader (Envision™, Perkin Elmer™, USA), which provided the base MP value. The inhibitor solution was then added to the well and the assay plate was placed on a shaker for 5 minutes. The MP value for each well was then measured again. A shift in fluorescent values was observed due to displacement of the fluorescently-labelled surrogate peptide by the inhibitors, and the average inhibition for each inhibitor could be calculated as described below:
Base MP value (X) for each well=MP value of Protein and Probe (350 nm STAT3+10 nM FAM-pYLPQTV)−MP value of free FAM-pYLPQTV
Inhibitor MP value (Y) for each well=MP value of Protein+Probe+Inhibitor (350 nm uSTAT3+10 nM FAM-pYLPQTV+2 μL Inhibitor)−MP value of free FAM-pYLPQTV with 2 μL DMSO
% inhibition by any ligand/peptide=(X−Y)/X*100
For comparison purpose, the % inhibition produced by 100 μM pYLKTKF was considered to be 100%, and the inhibition produced by different ligands was reported as relative to 100 μM pYLKTKF.
% Inhibition produced by 100 μM pYLKTKF=A
% Inhibition produced by 100 μM Ligand=B
Relative inhibition (%)=B/A*100
The experiment was carried out in triplicate, and average values were taken as the measure of PPI inhibition.

[3] = test system: MDA-MB-231 breast (STAT3-dependent) cancer cell line; assay: MTT cell viability assay, MDA-MB-231; format: cell-based, human; conditions: for IC50: MTT, 48 hours exposure (table title); for Selectivity ratio: STAT3-null A4 versus STAT3-dependent MDA-MB-231
Description: as §1, §2, §3

[4] = 48 hours exposure (table title)

Chain of unphosphorylated STAT3 monomer (uSTAT3) SH2 domain (P40763 whole entry, the tested form may be a part): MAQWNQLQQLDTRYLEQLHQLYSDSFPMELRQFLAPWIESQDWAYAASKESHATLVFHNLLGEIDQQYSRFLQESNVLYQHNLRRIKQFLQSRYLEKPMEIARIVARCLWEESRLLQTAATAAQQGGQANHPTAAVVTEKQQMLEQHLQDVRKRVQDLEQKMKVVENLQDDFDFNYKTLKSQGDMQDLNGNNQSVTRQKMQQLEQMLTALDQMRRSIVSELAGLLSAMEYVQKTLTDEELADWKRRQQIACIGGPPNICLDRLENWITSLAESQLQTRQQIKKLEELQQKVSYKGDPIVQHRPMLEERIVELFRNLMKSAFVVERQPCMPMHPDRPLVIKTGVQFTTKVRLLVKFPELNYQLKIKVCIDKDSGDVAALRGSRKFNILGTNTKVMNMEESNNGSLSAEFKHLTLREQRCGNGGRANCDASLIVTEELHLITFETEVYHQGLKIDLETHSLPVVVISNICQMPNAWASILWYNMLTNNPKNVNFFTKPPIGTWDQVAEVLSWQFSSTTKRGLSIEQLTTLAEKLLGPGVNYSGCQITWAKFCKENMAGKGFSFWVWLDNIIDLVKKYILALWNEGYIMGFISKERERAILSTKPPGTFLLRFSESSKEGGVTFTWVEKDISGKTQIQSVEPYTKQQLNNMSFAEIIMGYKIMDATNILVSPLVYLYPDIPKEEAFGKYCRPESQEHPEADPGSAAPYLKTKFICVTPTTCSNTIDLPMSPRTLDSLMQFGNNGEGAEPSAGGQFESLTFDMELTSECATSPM

IC50 ([1]; exposure (table title)) [µM]	inhibition at 100 µM [2] [%]	IC50 ([3]; Homo sapiens, MDA-MB-231, 48 h) [µM]	SMILES	Selectivity ratio [3]	IC50 [1, 4] [µM]	% Inhibition [2] [%]	IC50 [3] [µM]
34.6	43.7	3.2	COC(=O)c1ccc(N(C)S(=O)(=O)c2cc(C(=O)Nc3cccc(N4CCCCC4)c3)sc2-c2ccc(N3CCCCC3)cc2)cc1 [Compound 19, methyl 4-((N-methyl-2-(4-(piperidin-1-yl)phenyl)-5-((3-(piperidin-1-yl)phenyl)carbamoyl)thiophene)-3-sulfonamido)benzoate]	10.81	–	–	–
64.7	22.7	23.5	COC(=O)c1ccc(N(C)S(=O)(=O)c2cc(C(=O)Nc3ccc(N4CCCCC4)cc3)sc2Br)cc1 [Compound 21, methyl 4-((2-bromo-N-methyl-5-((4-(piperidin-1-yl)phenyl)carbamoyl)thiophene)-3-sulfonamido)benzoate]	2.75	–	–	–
73.5	11.7	34.4	COC(=O)c1ccc(N(C)S(=O)(=O)c2cc(C(=O)Nc3cccc(N4CCOCC4)c3)sc2Br)cc1 [Compound 22, methyl 4-((2-bromo-N-methyl-5-((3-morpholinophenyl)carbamoyl)thiophene)-3-sulfonamido)benzoate]	2.13	–	–	–
54.3	31.3	12.5	COC(=O)c1ccc(N(C)S(=O)(=O)c2cc(C(=O)Nc3ccc(CN4CCOCC4)cc3)sc2Br)cc1 [Compound 23, methyl 4-((2-bromo-N-methyl-5-((4-(morpholinomethyl)phenyl)carbamoyl)thiophene)-3-sulfonamido)benzoate]	4.34	–	–	–
25.8	8.24	14.5	COC(=O)c1ccc(N(C)S(=O)(=O)c2cc(C(=O)NCc3ccc(N4CCCCC4)cc3)sc2Br)cc1 [Compound 26, methyl 4-((2-bromo-N-methyl-5-((4-(piperidin-1-yl)benzyl)carbamoyl)thiophene)-3-sulfonamido)benzoate]	1.77	–	–	–
42.7	51.3	6.5	COC(=O)c1ccc(N(C)S(=O)(=O)c2cc(C(=O)Nc3cccc(N4CCCCC4)c3)sc2Br)cc1 [Compound 28, methyl 4-((2-bromo-N-methyl-5-((3-(piperidin-1-yl)phenyl)carbamoyl)thiophene)-3-sulfonamido)benzoate]	6.56	–	–	–
82.3	19.5	24.6	COC(=O)c1ccc(N(C)S(=O)(=O)c2cc(C(=O)Nc3ccc(N4CCOCC4)nc3)sc2Br)cc1 [Compound 30, methyl 4-((2-bromo-N-methyl-5-((6-morpholinopyridin-3-yl)carbamoyl)thiophene)-3-sulfonamido)benzoate]	3.34	–	–	–
94.2	42.3	4.45	COC(=O)c1ccc(N(C)S(=O)(=O)c2cc(C(=O)NCc3ccc(CN4CCCCC4)cc3)sc2Br)cc1 [Compound 33, methyl 4-((2-bromo-N-methyl-5-((4-(piperidin-1-ylmethyl)benzyl)carbamoyl)thiophene)-3-sulfonamido)benzoate]	21.16	–	–	–
45.3	29.1	7.8	COC(=O)c1ccc(N(C)S(=O)(=O)c2cc(C(=O)Nc3ccc4c(ccn4C)c3)sc2Br)cc1 [Compound 36, methyl 4-((2-bromo-N-methyl-5-((1-methyl-1H-indol-5-yl)carbamoyl)thiophene)-3-sulfonamido)benzoate]	5.80	–	–	–

Second part, the molecule before the results:

SMILES	IC50 ([1]; exposure (table title)) [µM]	inhibition at 100 µM [2] [%]	IC50 ([3]; Homo sapiens, MDA-MB-231, 48 h) [µM]	Selectivity ratio [3]	IC50 [1, 4] [µM]	% Inhibition [2] [%]	IC50 [3] [µM]
COC(=O)c1ccc(N(C)S(=O)(=O)c2cc(C(=O)Nc3ccc4c(ccn4Cc4ccccc4)c3)sc2-c2ccc(N3CCCCC3)cc2)cc1 [Compound 20, methyl 4-((5-((1-benzyl-1H-indol-5-yl)carbamoyl)-N-methyl-2-(4-(piperidin-1-yl)phenyl)thiophene)-3-sulfonamido)benzoate]	58.8	35.6	10.5	5.62	–	–	–
COC(=O)c1ccc(N(C)S(=O)(=O)c2cc(C(=O)NCc3ccc(N4CCOCC4)cc3)sc2Br)cc1 [Compound 24, methyl 4-((2-bromo-N-methyl-5-((4-morpholinobenzyl)carbamoyl)thiophene)-3-sulfonamido)benzoate]	33.2	9.42	34.5	0.96	–	–	–
COC(=O)c1ccc(N(C)S(=O)(=O)c2cc(C(=O)NCc3ccc(OCCN4CCOCC4)cc3)sc2Br)cc1 [Compound 25, methyl 4-((2-bromo-N-methyl-5-((4-(2-morpholinoethoxy)benzyl)carbamoyl)thiophene)-3-sulfonamido)benzoate]	–	–	–	–	43.6	49.62	3.6
COC(=O)c1ccc(NC(=O)c2cc(S(=O)(=O)N(C)c3ccc(C(=O)OC)cc3)c(Br)s2)cc1 [Compound 27, methyl 4-(5-bromo-4-(N-(4-(methoxycarbonyl)phenyl)-N-methylsulfamoyl)thiophene-2-carboxamido)benzoate]	58.3	20.3	8.7	6.70	–	–	–
COC(=O)c1ccc(N(C)S(=O)(=O)c2cc(C(=O)Nc3ccc(OCCN4CCOCC4)cc3)sc2Br)cc1 [Compound 29, methyl 4-((2-bromo-N-methyl-5-((4-(2-morpholinoethoxy)phenyl)carbamoyl)thiophene)-3-sulfonamido)benzoate]	–	–	–	–	53.6	42.90	5.8
COC(=O)c1ccc(N(C)S(=O)(=O)c2cc(C(=O)NCc3ccc(CN4CCOCC4)cc3)sc2Br)cc1 [Compound 31, methyl 4-((2-bromo-N-methyl-5-((4-(morpholinomethyl)benzyl)carbamoyl)thiophene)-3-sulfonamido)benzoate]	24.7	27.3	32.5	0.76	–	–	–
COC(=O)c1ccc(N(C)S(=O)(=O)c2cc(C(=O)NCc3ccc(N4CCN(C)CC4)cc3)sc2Br)cc1 [Compound 32, methyl 4-((2-bromo-N-methyl-5-((4-(4-methylpiperazin-1-yl)benzyl)carbamoyl)thiophene)-3-sulfonamido)benzoate]	74.5	6.18	7.65	9.73	–	–	–
COC(=O)c1ccc(N(C)S(=O)(=O)c2cc(C(=O)Nc3ccc(Cc4nc5cc(C)ccc5[nH]4)cc3)sc2Br)cc1 [Compound 34, methyl 4-((2-bromo-N-methyl-5-((4-((5-methyl-1H-benzo[d]imidazol-2-yl)methyl)phenyl)carbamoyl)thiophene)-3-sulfonamido)benzoate]	65.4	35.4	7.32	8.93	–	–	–
COC(=O)c1ccc(N(C)S(=O)(=O)c2cc(C(=O)Nc3ccc4[nH]c(Cc5ccccc5)nc4c3)sc2Br)cc1 [Compound 35, methyl 4-((5-((2-benzyl-1H-benzo[d]imidazol-5-yl)carbamoyl)-2-bromo-N-methylthiophene)-3-sulfonamido)benzoate]	38.7	33.3	4.45	8.69	–	–	–
